Key:
human LXR beta = target: T1, human LXR beta (Homo sapiens, UniProt P55055); assay: Radioligand binding assay (SPA), LXR beta LBD; details: radioligand displacement, LXR beta-LBD on SPA beads; read-out: LXRbeta Binding IC50
T1 construct: human LXR beta (aa 155 to 460); unspecified tag ('tagged versions'); made in house; host or cells: E. coli BL21 (pLysS)
T1 sequence (P55055 155-460): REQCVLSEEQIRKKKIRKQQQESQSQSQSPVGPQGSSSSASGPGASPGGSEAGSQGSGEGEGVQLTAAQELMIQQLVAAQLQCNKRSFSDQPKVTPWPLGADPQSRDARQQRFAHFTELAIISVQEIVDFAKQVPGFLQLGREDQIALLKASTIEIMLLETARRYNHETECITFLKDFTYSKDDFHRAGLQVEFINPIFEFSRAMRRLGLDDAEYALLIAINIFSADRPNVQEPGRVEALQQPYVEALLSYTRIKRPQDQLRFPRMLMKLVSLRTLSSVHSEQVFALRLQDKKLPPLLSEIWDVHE
Method: (§1) The following tests were carried out in order to determine the activity of the compounds of the present invention. Background information on the performed assays can be found in: Nichols J S et al. “Development of a scintillation proximity assay for peroxisome proliferator-activated receptor gamma ligand binding domain”, Anal Biochem. 1998, 257: 112-119.
(§2) Mammalian expression vectors were constructed to express full-length human LXR alpha and LXR beta. Bacterial expression vectors were constructed to produce tagged versions of the ligand binding domains (LBD) of human LXR alpha (aa 164 to 447) and human LXR beta (aa 155 to 460). To accomplish this, the portions of the sequences encoding the LBDs were amplified from the full-length clones by PCR and then subcloned into the plasmid vectors. Final clones were verified by DNA sequence analysis (Willy et al., Genes Dev. 1995, 9:1033-45; Song et al., Proc Natl Acad Sci USA. 1994, 91:10809-13).
(§3) Induction, expression, and purification of LBD proteins were performed in E. coli strain BL21 (pLysS) cells by standard methods (Ref: Current Protocols in Molecular Biology, Wiley Press, edited by Ausubel et al).
(§4) Radioligand Binding Assay
(§5) LXR alpha and LXR beta receptor binding were assayed in buffer consisting of 50 mM HEPES, pH 7.4, 10 mM NaCl, 5 mM MgCl2. For each 96-well reaction, 500 ng of LXRα-LBD or 700 ng of LXR beta-LBD proteins were bound to 80 μg or 40 μg SPA beads respectively, in a final volume of 50 μl by shaking. The resulting slurry was incubated for 1 h at RT and centrifuged for 2 min at 1300×g. The supernatant containing unbound protein was removed, and the semi-dry pellet containing the receptor-coated beads was re-suspended in 50 μl of buffer. Radioligand (eg. 100,000 dpm of (N-(2,2,2-trifluoroethyl)-N-[4-(2,2,2-trifluoro-1-hydroxy-1-trifluoromethylethyl)-phenyl]-benzenesulfonamide)) was added, and the reaction incubated at RT for 1 h in the presence of test compounds, and then scintillation proximity counting was performed. All binding assays were performed in 96-well plates and the amount of bound ligand was measured on a Packard TopCount using OptiPlates (Packard). Dose response curves were measured within a range of concentration from 10^−10 M to 10^−4 M.

human LXR alpha = target: T2, human LXR alpha (Homo sapiens, UniProt Q13133); assay: Radioligand binding assay (SPA), LXR alpha LBD; details: radioligand displacement, LXRα-LBD on SPA beads; read-out: LXRalpha Binding IC50
T2 construct: human LXR alpha (aa 164 to 447); unspecified tag ('tagged versions'); made in house; host or cells: E. coli BL21 (pLysS)
T2 sequence (Q13133 164-447): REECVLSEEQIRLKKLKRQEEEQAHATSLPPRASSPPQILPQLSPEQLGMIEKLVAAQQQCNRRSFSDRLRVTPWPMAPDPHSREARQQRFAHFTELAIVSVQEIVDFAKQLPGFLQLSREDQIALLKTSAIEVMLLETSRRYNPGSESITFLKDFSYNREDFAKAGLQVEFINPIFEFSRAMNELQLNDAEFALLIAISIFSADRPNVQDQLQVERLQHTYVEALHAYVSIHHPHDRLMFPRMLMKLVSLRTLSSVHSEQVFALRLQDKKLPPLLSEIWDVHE
Method: as §1, §2, §3, §4, §5

| SMILES | IC50 (human LXR beta) | IC50 (human LXR alpha) |
| --- | --- | --- |
| CS(=O)(=O)c1cccc(-c2cccc([C@@H]3CN(S(=O)(=O)c4ccccc4)CC[C@H]3c3ccccc3)c2)c1 (racemic) [Example 36, trans-1-Benzenesulfonyl-3-(3′-methanesulfonyl-biphenyl-3-yl)-4-phenyl-piperidine] | 25 nM | 70 nM |
| NCc1cccc(-c2cccc([C@@H]3CN(S(=O)(=O)c4ccccc4)CC[C@H]3c3ccccc3)c2)c1 (relative stereo) [Example 37] | 2090 nM | 2540 nM |
| CC(C)(C)OC(=O)N1CC[C@@H](c2ccccc2)[C@H](c2cccc(-c3cccc(S(C)(=O)=O)c3)c2)C1 (relative stereo) [Example 38, trans-3-(3′-Methanesulfonyl-biphenyl-3-yl)-4-phenyl-piperidine-1-carboxylic acid tert-butyl ester] | 25 nM | 160 nM |
| CS(=O)(=O)c1cccc(-c2cccc([C@@H]3CN(S(=O)(=O)c4ccccc4)CC[C@@H]3c3ccccc3)c2)c1 (relative stereo) [Example 39, cis-1-Benzenesulfonyl-3-(3′-methanesulfonyl-biphenyl-3-yl)-4-phenyl-piperidine] | 2750 nM | 3030 nM |
| Cc1ccc(C)c(-c2cccc([C@@H]3CN(C(=O)OC(C)(C)C)CC[C@@H]3c3ccccc3)c2)c1 (relative stereo) [Example 41, cis-3-(2′,5′-Dimethyl-biphenyl-3-yl)-4-phenyl-piperidine-1-carboxylic acid tert-butyl ester] | 36800 nM | 27400 nM |
| CC(C)(C)OC(=O)N1CC[C@H](c2ccccc2)[C@H](c2cccc(-c3cccc(S(C)(=O)=O)c3)c2)C1 (relative stereo) [Example 42, cis-3-(3′-Methanesulfonyl-biphenyl-3-yl)-4-phenyl-piperidine-1-carboxylic acid tert-butyl ester] | 610 nM | 2830 nM |
| CC(C)(C)OC(=O)N1CC[C@@H](c2ccccc2)[C@H](c2cccc(-c3cncc(S(C)(=O)=O)c3)c2)C1 (relative stereo) [Example 43, trans-3-[3-(5-Methanesulfonyl-pyridin-3-yl)-phenyl]-4-phenyl-piperidine-1-carboxylic acid tert-butyl ester] | 755 nM | 3980 nM |
| Cc1cccc(-c2cccc([C@@H]3CN(C(=O)OC(C)(C)C)CC[C@H]3c3ccccc3)c2)c1 (relative stereo) [Example 44, trans-3-(3′-Methyl-biphenyl-3-yl)-4-phenyl-piperidine-1-carboxylic acid tert-butyl ester] | 5510 nM | 53700 nM |
| CC(C)(C)OC(=O)N1C[C@H](c2cccc(-c3cccc(S(C)(=O)=O)c3)c2)[C@H](c2ccccc2)CC1=O (relative stereo) [Example 45, Cis-5-(3′-Methanesulfonyl-biphenyl-3-yl)-2-oxo-4-phenyl-piperidine-1-carboxylic acid tert-butyl ester] | 21 nM | 240 nM |
| CC(C)(C)OC(=O)N1C[C@H](c2cccc(-c3cncc(S(C)(=O)=O)c3)c2)[C@H](c2ccccc2)CC1=O (relative stereo) [Example 46, cis-5-[3-(5-Methanesulfonyl-pyridin-3-yl)-phenyl]-2-oxo-4-phenyl-piperidine-1-carboxylic acid tert-butyl ester] | 385 nM | 8220 nM |
| Cc1ccc(C)c(-c2cccc([C@H]3CN(C(=O)OC(C)(C)C)C(=O)C[C@H]3c3ccccc3)c2)c1 (relative stereo) [Example 47, Cis-5-(2′,5′-Dimethyl-biphenyl-3-yl)-2-oxo-4-phenyl-piperidine-1-carboxylic acid tert-butyl ester] | 220 nM | 185 nM |
| O=C(O)c1ccc(-c2ccc(C3CN(S(=O)(=O)c4ccccc4)C(=O)N3c3ccccc3)cc2)cc1 (stereo not shown) [Example 1, 4′-(1-Benzenesulfonyl-2-oxo-3-phenyl-imidazolidin-4-yl)-biphenyl-4-carboxylic acid] | 2880 nM | 11600 nM |
| O=C(O)c1cccc(-c2ccc(C3CN(S(=O)(=O)c4ccccc4)C(=O)N3c3ccccc3)cc2)c1 (stereo not shown) [Example 2, 4′-(1-Benzenesulfonyl-2-oxo-3-phenyl-imidazolidin-4-yl)-biphenyl-3-carboxylic acid] | 8050 nM | 7970 nM |
| Cc1ccc(C)c(-c2ccc(C3CN(S(=O)(=O)c4ccccc4)C(=O)N3c3ccccc3)cc2)c1 (stereo not shown) [Example 3, 1-Benzenesulfonyl-4-(2′,5′-dimethyl-biphenyl-4-yl)-3-phenyl-imidazolidin-2-one] | 5250 nM | 10200 nM |
| CS(=O)(=O)c1cccc(-c2ccc(C3CN(S(=O)(=O)c4ccccc4)C(=O)N3c3ccccc3)cc2)c1 (stereo not shown) [Example 4, 1-Benzenesulfonyl-4-(3′-methanesulfonyl-biphenyl-4-yl)-3-phenyl-imidazolidin-2-one] | 280 nM | 1680 nM |
| O=C(O)c1ccc(-c2cccc(C3CN(S(=O)(=O)c4ccccc4)C(=O)N3c3ccccc3)c2)cc1 (stereo not shown) [Example 5, 3′-(1-Benzenesulfonyl-2-oxo-3-phenyl-imidazolidin-4-yl)-biphenyl-4-carboxylic acid] | 5420 nM | 4140 nM |
| O=C(O)c1cccc(-c2cccc(C3CN(S(=O)(=O)c4ccccc4)C(=O)N3c3ccccc3)c2)c1 (stereo not shown) [Example 6, 3′-(1-Benzenesulfonyl-2-oxo-3-phenyl-imidazolidin-4-yl)-biphenyl-3-carboxylic acid] | 9030 nM | 5720 nM |
| CS(=O)(=O)c1cccc(-c2cccc(C3CN(S(=O)(=O)c4ccccc4)C(=O)N3c3ccccc3)c2)c1 (stereo not shown) [Example 7, 1-Benzenesulfonyl-4-(3′-methanesulfonyl-biphenyl-3-yl)-3-phenyl-imidazolidin-2-one] | 4 nM | 90 nM |
| CS(=O)(=O)Nc1cccc(-c2cccc(C3CN(S(=O)(=O)c4ccccc4)C(=O)N3c3ccccc3)c2)c1 (stereo not shown) [Example 8, N-[3′-(1-Benzenesulfonyl-2-oxo-3-phenyl-imidazolidin-4-yl)-biphenyl-3-yl]-methanesulfonamide] | 74.5 nM | 335 nM |
| CS(=O)(=O)Nc1cccc(-c2ccc(C3CN(S(=O)(=O)c4ccccc4)C(=O)N3c3ccccc3)cc2)c1 (stereo not shown) [Example 9, N-[4′-(1-Benzenesulfonyl-2-oxo-3-phenyl-imidazolidin-4-yl)-biphenyl-3-yl]-methanesulfonamide] | 360 nM | 425 nM |
| O=C(O)CCc1ccc(-c2cccc(C3CN(S(=O)(=O)c4ccccc4)C(=O)N3c3ccccc3)c2)cc1 (stereo not shown) [Example 10, 3-[3′-(1-Benzenesulfonyl-2-oxo-3-phenyl-imidazolidin-4-yl)-biphenyl-4-yl]-propionic acid] | 2690 nM | 3350 nM |
| O=C(O)c1ccccc1-c1cccc(C2CN(S(=O)(=O)c3ccccc3)C(=O)N2c2ccccc2)c1 (stereo not shown) [Example 11, 3′-(1-Benzenesulfonyl-2-oxo-3-phenyl-imidazolidin-4-yl)-biphenyl-2-carboxylic acid] | 46100 nM | 13000 nM |
| CC(C)N1C(=O)N(S(=O)(=O)c2ccccc2)CC1c1cccc(-c2cccc(S(C)(=O)=O)c2)c1 (stereo not shown) [Example 12, 1-Benzenesulfonyl-3-isopropyl-4-(3′-methanesulfonyl-biphenyl-3-yl)-imidazolidin-2-one] | 24.3 nM | 147 nM |

Source: patent publication US8063088B2 (Hoffmann-La Roche Inc., priority 2008, dated 2011)
